Data taken from patent US11925629B2, “Heterocyclic inhibitors of ERK1 and ERK2 and their use in the treatment of cancer” (Asana Biosciences, LLC, priority 2015, dated 2024).

How the values were obtained:
[1] = tested on: HCT116 (colorectal carcinoma, K Ras G13D) cells; test: Cell proliferation (Alamar Blue) assay, HCT116; type: cell-based, human; conditions: Homo sapiens, HCT-116, HCT116 cells
Protocol: (§1) Cell Proliferation (Alamar Blue) Assay
(§2) HT-29 (colorectal carcinoma, B-RafV600E), HCT116 (colorectal carcinoma, K Ras G13D), A375 (melanoma, B-RafV600E) and SK-Mel2 (melanoma, NRAS Q61R) cells (obtained from ATCC, USA) were seeded (5000 cells/well) in 96-well tissue culture plate and incubated at 37° C./5% CO2 for 16-24 hours. The cells were then treated with compounds, at concentrations typically from 0.0005 to 10 uM prepared in 3-fold serial dilutions. The plates were then incubated for 72 h at 37° C./5% CO2 in a moist environment. Then Alamar Blue™ reagent (final concentration 1×) was added to each well and incubated for 1-3 h at 37° C./5% CO2. The plates were read on fluorescence reader at 540 nm excitation and 590 nm emission wavelengths. The IC50 values were subsequently determined using a sigmoidal dose-response curve (variable slope) using GraphPad Prism® 5 software.

[2] = tested on: HT-29 (colorectal carcinoma, B-RafV600E) cells; test: Cell proliferation (Alamar Blue) assay, HT-29; type: cell-based, human; conditions: Homo sapiens, HT-29, HT29 cells
Protocol: as §1, §2

IC50 [1] | IC50 [2] | Structure (SMILES)
> 2500 nM | > 2500 nM | Cc1cnc(Nc2ccc3c(c2)OCO3)nc1-n1cc(NC(=O)N[C@H](CO)c2ccccc2)cn1 [Cmpd 55, (S)-1-(1-(2-(benzo[d][1,3]dioxol-5-ylamino)-5-methyl-pyrimidin-4-yl)-1H-pyrazol-4-yl)-3-(2-hydroxy-1-phenylethyl) urea]
> 2500 nM | > 2500 nM | CC[C@@H](CO)Nc1ncc(C)c(-n2ccc(C(=O)N[C@@H](CO)c3cccc(Cl)c3)c2)n1 [Example 218, N-((R)-1-(3-chlorophenyl)-2-hydroxyethyl)-1-(2-(((S)-1-hydroxybutan-2-yl)amino)-5-methylpyrimidin-4-yl)-1H-pyrrole-3-carboxamide]
> 2500 nM | > 2500 nM | Cc1cnc(Nc2ccc(F)cc2)cc1-n1cnc(C(=O)NC(CO)c2ccccc2)c1 (stereo not drawn) [Example 222, 1-(2-((4-fluorophenyl)amino)-5-methylpyridin-4-yl)-N-(2-hydroxy-1-phenylethyl)-1H-imidazole-4-carboxamide]
> 2500 nM | > 2500 nM | O=C(NC(CO)c1cccc(Cl)c1)c1ccn(-c2ccnc(Nc3ccc(F)cc3Cl)n2)c1 (stereo not drawn) [Example 111, 1-(2-((2-chloro-4-fluorophenyl)amino)pyrimidin-4-yl)-N-(1-(3-chlorophenyl)-2-hydroxy-ethyl)-1H-pyrrole-3-carboxamide]
> 2500 nM | > 2500 nM | Cc1cnc(Nc2ccc(F)cc2Cl)cc1-n1ccc(C(=O)NC(CO)c2ccccc2)c1 (stereo not drawn) [Example 78, 1-(2-((2-chloro-4-fluorophenyl)amino)-5-methyl-pyridin-4-yl)-N-(2-hydroxy-1-phenylethyl)-1H-pyrrole-3-carboxamide]
> 2500 nM | > 2500 nM | O=C(NC(CO)c1ccccc1)c1ccn(-c2ccnc(Nc3ccc(F)cc3)c2)c1 (stereo not drawn) [Example 84, 1-(2-((4-fluoro-phenyl)amino)pyridin-4-yl)-N-(2-hydroxy-1-phenyl-ethyl)-1H-pyrrole-3-carboxamide]
> 2500 nM | > 2500 nM | Cc1cnc(NC2(CO)CC2)nc1-n1ccc(C(=O)NC(CO)c2ccc(F)c(Cl)c2)c1 (stereo not drawn) [Example 203, N-(1-(3-chloro-4-fluorophenyl)-2-hydroxyethyl)-1-(2-((1-(hydroxymethyl)cyclopropyl)amino)-5-methylpyrimidin-4-yl)-1H-pyrrole-3-carboxamide]
500 to 2500 nM | ≤ 100 nM | O=C(N[C@H](CO)c1cccc(Cl)c1)c1ccn(-c2nc(NC3CCOCC3)ncc2F)c1 [Example 229, (S)-N-(1-(3-chlorophenyl)-2-hydroxyethyl)-1-(5-fluoro-2-((tetrahydro-2H-pyran-4-yl)amino)pyrimidin-4-yl)-1H-pyrrole-3-carboxamide]
> 2500 nM | > 2500 nM | Cc1cnc(NC2CC2)nc1-n1cc(C(=O)NC(CO)c2cccc(Cl)c2)cn1 (stereo not drawn) [Example 40, N-(1-(3-chlorophenyl)-2-hydroxy-ethyl)-1-(2-(cyclopropyl-amino)-5-methyl-pyrimidin-4-yl)-1H-pyrazole-4-carboxamide]
> 2500 nM | > 2500 nM | Cc1cnc(Nc2ccc3c(c2)OCO3)nc1-n1cc(C(=O)N[C@H](CO)c2cccc(Cl)c2)cn1 [Example 50, (S)-1-(2-(benzo[d][1,3]dioxol-5-ylamino)-5-methyl-pyrimidin-4-yl)-N-(1-(3-chloro-phenyl)-2-hydroxy-ethyl)-1H-pyrazole-4-carboxamide]
> 2500 nM | > 2500 nM | Cc1cnc(Nc2ccccc2)cc1-n1cnc(C(=O)NC(CO)c2ccccc2)c1 (stereo not drawn) [Example 89, N-(2-hydroxy-1-phenylethyl)-1-(5-methyl-2-(phenyl-amino)pyridin-4-yl)-1H-imidazole-4-carboxamide]

Structure (SMILES) | IC50 [1] | IC50 [2]
O=C(Nc1cnn(-c2ccnc(NC3CC3)n2)c1)N[C@H](CO)c1cccc(Cl)c1 [Example 6, (S)-1-(1-(3-chlorophenyl)-2-hydroxyethyl)-3-(1-(2-(cyclo-propyl-amino)pyrimidin-4-yl)-1H-pyrazol-4-yl)urea] | > 2500 nM | > 2500 nM
